Test results reported in patent US7749982B2, “Complex containing mequitazine, a cyclodextrin and an interaction agent” (Pierre Fabre Medicament, priority 2004, dated 2010).

Assays:
[1] = Bioavailability of mequitazine administered by oral route; conditions: in vivo
Description: As for many pharmaceutically active ingredients, the absorption of mequitazine administered by oral route takes place in the intestine. […] A very small portion of the mequitazine ingested is in solubilized form, and thus it is absorbed with difficulty through the intestinal barrier.

[2] = Mequitazine solubilization test (2 g/l in water, HPLC assay); format: physicochemical
Procedure: In the sense of the present invention, “rate of solubilization” means the percentage of solubilized mequitazine after stirring a mixture of water and mequitazine for 15 minutes at 37° C. A mixture of 2 g/l of mequitazine in water is usually used to measure this rate. This solubilization can be measured by a solubilization test as indicated below.
The mequitazine content in the dissolution solutions is measured by HPLC:
In a 100 ml Erlenmeyer flask, place a test sample equivalent to 100 mg of mequitazine. Add 50 ml of ultrapure water. […] Place under magnetic stirring at 400 rpm in a water bath at 37° C.±2° C. Remove a 2 ml sample under magnetic stirring at 15 minutes. Filter the sample on a 0.45 μm Gelman GHP Acrodisc polypropylene filter. The solution must be limpid. Dilute the sample to 1/200 in a phase: water/acetonitrile (50/50).
Deduce concentration X in μg/ml by following the regression line of the controls.
Calculate the concentration in μg/ml of solubilized mequitazine by multiplying by the inverse of the dilution made (i.e., 200).
The rate of solubility of mequitazine is calculated by dividing the concentration of solubilized mequitazine by the total concentration of mequitazine in the starting solution. […]
The solubility and the rates of solubilization of mequitazine only or mequitazine in physical mixtures are measured as indicated above in the “mequitazine solubilization test”. […]

- bioavailability [1]: ~0.3%
- solubility (in words) ([2]; acid pH range from 2 to 6): high solubility
- solubility (in words) ([2]; pH 9): very low solubility
SMILES: c1ccc2c(c1)Sc1ccccc1N2CC1CN2CCC1CC2 (stereo not drawn) [mequitazine]
